Assays:
A. viscosus = experiment: Growth inhibition of A. viscosus over 24 hours (bacterial optical density); type: cell-based; conditions: for Bacterial optical density, 4 h / Bacterial optical density, 22 h / Bacterial optical density, 24 h / Bacterial optical density, 0 h: 500 μl test sample added to 9.5 ml A. viscosus in TSB, 3 replicates; for Bacterial optical density, 0 h: initial O.D.
Source text: Bacterial optical density was captured every at 0, 4, 22 and 24 hrs.

3-day biofilm = experiment: Design-of-experiments statistical analysis / D-Optimal Design prediction of 3-day biofilm removal; conditions: glycerin 10%, propylene glycol 5%; for Percent biofilm removal: sorbitol 10%; for Percent biofilm removal if sorbitol at 20%: sorbitol 20%
Method: A statistical design-of-experiments (DOE) approach was used to develop prototype mouth rinse formulations for biofilm removal. An 8 factor design was used. A mouth rinse was used a base formulation (see Table 3). […] The influence of the anti-bacterial agent cetyl pyridinium chloride (CPC) on biofilm removal was also evaluated. The sweetener sucralose and the flavor were at kept constant concentration in all the formulations.

[1] = test system: biofilm of artificial mouth consortium (A. naeslundii, S. oralis, V. parvula, L. casei, F. nucleatum) of bacteria with S. mutans; experiment: In vitro biofilm removal: 3-day old multispecies oral biofilm on saliva-coated 24 well plate, optical density at 610 nm, % reduction from water control; conditions: for % removal in High humectant mouthwash / % removal in Low humectant mouthwash: 3-day old biofilm; for impact on biofilm removal (in words): ingredient effect in mouthrinse formulations, 3-day old in-vitro oral biofilm

Compound | Bacterial optical density, 4 h (A. viscosus) | Bacterial optical density, 22 h (A. viscosus) | Bacterial optical density, 24 h (A. viscosus) | Bacterial optical density, 0 h (A. viscosus) | impact on biofilm removal (in words) [1] | also measured
1,2,4-trimethyl-pyrazolium methylsulfate | 0.1978 | 0.8519 | 1.0042 | 0.1482 |  | 
1-buty1-3-methylimidazolium (BMIM) bromide | 0.2373 | 0.5994 | 0.8244 | 0.1482 |  | 
1-ethy1-3-methylimidazolium (EMIM) bromide | 0.2216 | 0.7598 | 0.8533 | 0.1482 |  | 
C=CCn1cc[n+](C)c1.[Cl-] [1-ally1-3-methylimidazolium (AMIM) chloride] | 0.2265 | 0.7091 | 0.8440 | 0.1482 |  | 
C[N+](C)(C)CCO.[Cl-] [Choline chloride] | 0.2445 | 1.0236 | 1.0674 | 0.1482 |  | 
C[N+](C)(C)CCO.O=C([O-])c1ccccc1O [Choline salicylate, choline salicylate] | 0.1523 | 0.1542 | 0.1539 | 0.1482 |  | Percent biofilm removal (3-day biofilm; choline salicylate 10, TRIS 0): 48%; Percent biofilm removal if sorbitol at 20% (3-day biofilm; choline salicylate 10, TRIS 0): 53%; Percent biofilm removal (3-day biofilm; choline salicylate 20, TRIS 0): 61%; Percent biofilm removal if sorbitol at 20% (3-day biofilm; choline salicylate 20, TRIS 0): 66%; growth inhibition of A. viscosus (in words) (A. viscosus; formulated at 10% concentration in a mouth rinse): greater growth inhibition of A. viscosus than does a mouthrinse which contains 0.075% cetyl pyridinium chloride
CC(=O)[O-].CCn1cc[n+](C)c1 [EMIM acetate] | 0.2324 | 0.7942 | 0.8223 | 0.1482 |  | 
CCOS(=O)(=O)[O-].CCn1cc[n+](C)c1 [EMIM ethylsulfate] | 0.2499 | 0.7514 | 0.7965 | 0.1482 |  | 
C[N+](CCO)(CCO)CCO [Tris-HMAM, tris (2-hydroxyethyl) methylammonium methylsulfate] | 0.2605 | 0.8415 | 0.9087 | 0.1482 | enhances biofilm removal | Percent biofilm removal (3-day biofilm; choline salicylate 0, TRIS 10): 47%; Percent biofilm removal if sorbitol at 20% (3-day biofilm; choline salicylate 0, TRIS 10): 52%; Percent biofilm removal (3-day biofilm; choline salicylate 0, TRIS 20): 60%; Percent biofilm removal if sorbitol at 20% (3-day biofilm; choline salicylate 0, TRIS 20): 65%; % removal in High humectant mouthwash ([1]; 1% Tris-HMAM): 39.0%; % removal in Low humectant mouthwash ([1]; 1% Tris-HMAM): 25.6%; % removal in High humectant mouthwash ([1]; 2.5% Tris-HMAM): 50.5%; % removal in Low humectant mouthwash ([1]; 2.5% Tris-HMAM): 28.2%; % removal in High humectant mouthwash ([1]; 5% Tris-HMAM): 53.9%; % removal in Low humectant mouthwash ([1]; 5% Tris-HMAM): 30.9%; % removal in High humectant mouthwash ([1]; 10% Tris-HMAM): 57.7%; % removal in Low humectant mouthwash ([1]; 10% Tris-HMAM): 46.8%; % removal in High humectant mouthwash ([1]; 20% Tris-HMAM): 71.1%; % removal in Low humectant mouthwash ([1]; 20% Tris-HMAM): 57.3%; % removal in High humectant mouthwash ([1]; 40% Tris-HMAM): 73.2%; % removal in Low humectant mouthwash ([1]; 40% Tris-HMAM): 67.1%
OCC(O)CO [glycerin] |  |  |  |  | increases the percent of biofilm removal | 
CC(O)CO (stereo not drawn) [propylene glycol] |  |  |  |  | increases the percent of biofilm removal | 
OC[C@@H](O)[C@@H](O)[C@H](O)[C@@H](O)CO [sorbitol] |  |  |  |  | increases the percent of biofilm removal | increase in biofilm removal (3-day biofilm; 20% sorbitol in the formulations): ~5%
Choline acetate | 0.2559 | 0.9480 | 1.0385 | 0.1482 |  | 

— patent US20150335549A1, “Oral Care Composition Containing Ionic Liquids” (COLGATE-PALMOLIVE COMPANY, priority 2012, published 2015)
